# Patent US9975860B2, “Anti-angiogenic compounds” (UNIVERSITY COLLEGE DUBLIN—NATIONAL UNIVERSITY OF IRELAND, …, priority 2014, dated 2018)
# Entries after “also recorded” stand apart in the source; their conditions may differ.
# Assays:
# [1] = test system: oxygen induced mouse model of retinopathy; experiment: Mouse oxygen-induced retinopathy model of neovascularisation; assay type: in vivo; conditions: 5 and 20 μM; intravitreal injection on P12, retinas analysed P17; mouse OIR; hydrochloride
# Description: The mouse oxygen-induced retinopathy model was used to test the anti-angiogenic activity of compounds 4, 12 and 18. Mouse pups (together with their dams) were placed in 75% oxygen from postnatal day (P) 7 to P12, causing a regression of their retinal blood vessels. On P12, pups were placed back in normoxia (21%) causing a regrowth of retinal blood vessels. Pups received an intravitreal injection on P12, of compound 4, 12, 18 or vehicle control—Hank's Balanced Salt Solution, coinciding with their return to normoxia. Pups were culled on P17 and enucleated. Eyes were fixed in 4% paraformaldehyde, washed and dissected to form retinal flatmounts. Flatmounts were stained with isolectin to visualise blood vessels and imaged. The central avascular area (lacking a network of blood vessels) was quantified using FIJI image analysis software.
# [2] = test system: intersegmental vasculature in zebrafish; experiment: Quantification of intersegmental vessel number in zebrafish; assay type: in vivo; conditions: 10 μM; zebrafish embryos treated 6 hpf to 48 hpf
# Protocol: At 6 hours post fertilisation, 5 embryos per well were placed in 400 μL of embryo medium/0.1% DMSO and incubated with 10 μM compound at 28° C. on a 14 h light/10 h dark cycle. At 48 hpf larvae were manually dechorionated, euthanised, and fixed in 4% PFA at 4° C. overnight before analysis. The larvae were then washed with PBS and transferred to depression slides for observation under epi-fluorescence in an Olympus SZX16 fluorescent microscope. The number of intersegmental vessels was counted and the average number was graphed for each drug.
# (§1) All experimental protocols were carried out as per example 1 and 2. Briefly, zebrafish larvae were treated with 10 μM of AT-051/41206012 (chemical name 2-[2-(2-methoxyphenyl)ethenyl]pyrazine) purchased from Specs (The Netherlands). At 6 or 48 hours post fertilisation (hpf), 5 embryos per well were placed in 400 μl of Embryo Medium/0.1% DMSO and incubated with 10 μM AT-051/41206012 at 28° C. on a 14 h light/10 h dark cycle. Larvae were treated from 6-48 hpf (intersegmental vessel study) or from 48 to 120 hpf (primary hyaloid vessel study). At the end of the study, larvae were euthanized and fixed in 4% PFA at 4° C. overnight before analysis.
# (§2) The number of intersegmental vessels was counted and the average number was graphed for each drug. Right lenses were dissected from the larvae and transferred to depression slides for observation and the number of primary hyaloid vessels radiating from the back of the lens (3-4 main branches at 5 dpf in controls and previously described), was counted and the average number was graphed for each drug.
# mouse aortic ring = experiment: Ex vivo mouse aortic ring assay (sprout formation); conditions: 10 μM; C57/BL6 mouse aortic rings in matrigel; vs 0.1% DMSO; hydrochloride
# Protocol: Aortae from sex matched C57/BL6 littermates were cleansed of adipose tissue, cut into 2 mm rings and immersed in matrigel. Aortic rings (6 per experiment) were treated with 0.1% DMSO (vehicle control/VC) or with 10 μM of Compound 4, Compound 12, Compound 15 or Compound 20. Sprouts from the perimeter of the aortic ring were counted and quantified as percentage of vehicle control (VC).
# [3] = test system: primary hyaloid vessels in zebrafish; experiment: Quantification of primary hyaloid vasculature branch number in Tg(fli1:EGFP) zebrafish; assay type: in vivo
# Protocol: All experiments were carried out under ethical approval granted by the UCD animal research ethics committee. Tg(fli1:EGFP) zebrafish were maintained according to standard procedures on a 14 hr light/10 hr dark cycle at 28° C. Embryos were obtained by natural spawning and developmental stages established by time and morphological criteria. At 48 hours post fertilisation (hpf), 5 embryos per well were placed in 400 μl of Embryo Medium/0.1% DMSO and incubated with compound (typically, 10 μM) at 28° C. on a 14 h light/10 h dark cycle. At 5 days post fertilisation (dpf), larvae were euthanised, and fixed in 4% PFA at 4° C. overnight before analysis.
# Prior to analysis of the intraocular vasculature, the control and treated larvae were observed under an Olympus SZX16 stereo zoom microscope and screened for general malformations. Overall patterning of the vasculature (fin, gut and intersegmental vessels) was examined for abnormalities. Right lenses were dissected from the larvae and transferred to depression slides for observation under epi-fluorescence in the Olympus SZX16. Patterning of the hyaloid vessels on the treated larval lenses was compared to 0.1% DMSO controls and the archetypal pattern previously described (Alvarez et al., 2007; Alvarez et al., 2009). The number of primary vessels radiating from the back of the lens (3-4 main branches at 5 dpf in controls and previously described), was counted and the average number was graphed for each drug.
# as §1, §2
compound,measurement,setting,value
"C/C(=C\c1ccccc1O)c1cnccn1.Cl [Compound 12, (E)-2-[2-(Pyrazin-2-yl)prop-1-enyl]phenol hydrochloride]",retinal neovascularisation / revascularisation (central avascular area),[1],significantly reduces retinal neovascularisation; also recorded: inhibits retinal revascularisation in a statistically significant manner
same,inhibition of developmental angiogenesis of intersegmental vessels (number of intersegmental vessels),[2],inhibit developmental angiogenesis of zebrafish intersegmental vessels in a statistically significant manner
same,angiogenesis (sprout formation) in aortic rings,mouse aortic ring,block angiogenesis (sprout formation); also recorded: inhibit the formation of sprouts in a statistically significant manner
same,inhibition of developmental angiogenesis of the hyaloid vasculature (number of primary hyaloid vessels),"[3]; 10 μM, zebrafish larvae treated 48 hpf to 5 dpf, vs 0.1% DMSO control",inhibit developmental angiogenesis of the zebrafish hyaloid vasculature in a statistically significant manner
same,inhibition of developmental angiogenesis of the hyaloid vasculature (number of primary hyaloid vessels),"[3]; concentrations below 10 μM (range 1, 2.5, 5, 7.5 and 10 μM tested), zebrafish larvae 48 hpf to 5 dpf",inhibit developmental angiogenesis of the zebrafish hyaloid vasculature in a statistically significant manner
